Results taken from patent US7884234B2, “N-phenyloxamide derivatives” (Institute of Medicinal Molecular Design, inc., priority 2006, dated 2011).
pIC50: −log10 of the molar value.

How the values were obtained:
Type in all cases: biochemical
recombinant human PAI-1 [1] = target: T1, recombinant human PAI-1 (Homo sapiens, UniProt P05121); assay: Test Example 1: human PAI-1 inhibitory activity (tPA fluorogenic substrate assay, pH7.5 Tris buffer)
T1 construct: purchased Molecular Innovations, Inc
From the text: <Composition of pH7.5 Tris Buffer)
0.01% Tween80 (SIGMA-ALDRICH Corporation)

recombinant rat PAI-1 = target: T2, recombinant rat PAI-1 (Rattus norvegicus, UniProt P20961); assay: Test Example 3: rat PAI-1 inhibitory activity (tPA fluorogenic substrate assay, pH7.4 HEPES buffer); settings: for pIC50: pH7.4 HEPES buffer, obtained from Table 7 results; for inhibition at 10 µM: pH 7.4, read-out: Inhibition Rate of Rat PAI-1 Activity (%)
T2 construct: purchased Molecular Innovations, Inc
T2 sequence (P20961 24-402): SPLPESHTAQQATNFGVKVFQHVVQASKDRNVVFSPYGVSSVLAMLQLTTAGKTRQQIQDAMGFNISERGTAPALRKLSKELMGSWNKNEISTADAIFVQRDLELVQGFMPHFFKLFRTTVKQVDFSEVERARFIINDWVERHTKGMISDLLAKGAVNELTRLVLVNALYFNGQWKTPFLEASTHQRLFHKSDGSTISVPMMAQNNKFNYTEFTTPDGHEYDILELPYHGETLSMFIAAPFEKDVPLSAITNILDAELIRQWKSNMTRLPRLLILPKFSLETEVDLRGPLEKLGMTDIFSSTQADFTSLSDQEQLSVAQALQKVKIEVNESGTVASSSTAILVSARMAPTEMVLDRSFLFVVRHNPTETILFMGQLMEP
Experimental: (§1) Except using the pH7.4 HEPES buffer instead of pH7.5 Tris buffer, and the change of incubation time from 15 minutes to 10 minutes of the mixed solution added by two-chain tPA solution, tests were carried out similarly to the Test Example 1.

recombinant human PAI-1 [2] = target: T1, recombinant human PAI-1; assay: Test Example 4: human PAI-1 inhibitory activity (amount of PAI-1 bound to plate-coated tPA, ELISA); settings: PAI-1 50 ng/ml bound to coated tPA, read-out: Inhibition Rate of Human PAI-1 Activity (%); for inhibition at 0.1 µM: compound 0.1 μM; for inhibition at 0.3 µM: compound 0.3 μM
Experimental: 100 μl of tPA solution where one-chain recombinant tPA (hereinafter refereed to as tPA; American diagnostica, inc.) diluted with Buffer A to achieve a concentration of 10 μg/ml was added to each well of 96-well plate (Nunc Maxisorp), incubated for one night at […] to coated with tPA. Then, after suction of tPA solution from the 96-well plate, rinsed successively with Buffer A and Buffer B.
To Buffer B, solutions of the present application compound dissolved with DMSO (final DMSO concentration: 0.2%) and recombinant human PAI-1 (Molecular Innovations, Inc.) were added and blended so that the final concentrations would be 0.1 to 3.0 μM and 50 ng/ml respectively, and were incubated for 15 minutes on ice. These mixed solutions were added to rinsed 96-well plates at 100 μl/well, and incubated for 60 minutes at room temperature. To prepare calibration curve, PAI-1 solutions without the present application compound (solutions where the final concentrations being 100, 50, 25, 12.5, 6.25, 3.13, 1.56 ng/ml PAI-1) were added at 100 μl/well, and were incubated for 60 minutes at room temperature, as standard.
After incubation, the reaction mixture was suction removed, and rinsed each well with Wash Buffer. Next, anti-human PAI-1 monoclonal antibody (PROGEN Inc.) diluted with Buffer C to be 3.0 μg/ml was added to the 96-well plate at 100 μl/well, and incubated for 1 hour at room temperature. After rinsing each well with Wash Buffer, alkaline phosphatase-labeled goat anti-mouse IgG (H+L) (Jackson ImmunoResearch, Inc.) diluted with Buffer D to be 0.12 μg/ml was added at 100 μl/well, and incubated for 1 hour at room temperature. After rinsing each well with Wash Buffer, 1.0 mg/ml p-Nitrophenyl Phosphate (SIGMA) was added to the 96-well plate at 100 μl/well to start the reaction. After 30 to 60 minutes, 25 μl of 0.5 N NaOH was added to stop the reaction, and the absorbance was measured at 405 nm using a multiplate reader (GENios; TECAN G.M.B.H.).
Based on the calibration curve prepared from the standard wells, amounts of PAI-1 bound to tPA in the wells treated with the present application compound were calculated, and the PAI-1 inhibition rates by the present application compounds were obtained by the following equation. [PAI-1 Inhibition Rate (%)]=[1-(amount of PAI-1 bound to tPA on the well treated with the present application compound)/(amount of PAI-1 bound to tPA on the well treated with PAI-1 solution without present application compound (solution with the final concentration of 50 ng/ml PAI-1)]×100 <Composition of Buffer A> 0.1 M Tris-HCl-150 150 mM NaCl pH 7.7 <Composition of Buffer B> 50 mM sodium phosphate 0.1 M NaCl 1 mM EDTA pH 6.6 <Composition of Buffer C> 50 mM sodium phosphate 100 mM NaCl pH 7.4 <Composition of Buffer D> 0.01 M Tris-HCl 0.25 M NaCl pH 8.0 <Composition of Wash Buffer> 0.05% Tween 20 0.1% BSA in Buffer A <Composition of p-Nitrophenyl Phosphate Solution> 1 M Diethanolamine 0.5 mM MgCl2 p-Nitrophenyl phosphate pH 9.8

recombinant human PAI-1 [3] = target: T1, recombinant human PAI-1; assay: Test Example 2: human PAI-1 inhibitory activity (tPA fluorogenic substrate assay, pH7.4 HEPES buffer); settings: for pIC50: pH7.4 HEPES buffer, obtained from Table 5 results; for inhibition at 3 µM: pH 7.4, read-out: Inhibition Rate of Human PAI-1 Activity (%)
Experimental: as §1
<Compotion of pH7.4 HEPES Buffer>
0.1% Polyethylene glycol 8,000 (Hampton Research Corporation)
2 mM Dimethyldecylphoshine oxide [Apo-10] (Fluka Corporation)

T1 sequence (P05121 24-402): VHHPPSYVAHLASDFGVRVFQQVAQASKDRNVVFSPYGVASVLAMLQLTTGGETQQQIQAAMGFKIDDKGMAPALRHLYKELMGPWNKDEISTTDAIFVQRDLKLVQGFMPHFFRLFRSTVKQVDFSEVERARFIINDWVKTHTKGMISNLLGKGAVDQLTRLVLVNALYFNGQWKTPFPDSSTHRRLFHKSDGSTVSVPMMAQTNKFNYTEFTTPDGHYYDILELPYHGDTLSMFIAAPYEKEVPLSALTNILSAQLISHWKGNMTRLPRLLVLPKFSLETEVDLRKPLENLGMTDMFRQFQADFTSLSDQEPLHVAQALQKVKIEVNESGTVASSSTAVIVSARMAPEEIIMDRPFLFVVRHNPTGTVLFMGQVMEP

inhibition at 5 µM (recombinant human PAI-1 [1]; pH 7.5, compound 5 μM, read-out: Inhibition Rate of Human PAI-1 Activity (%)) [%] | inhibition at 10 µM (recombinant human PAI-1 [1]; pH 7.5, compound 10 μM, read-out: Inhibition Rate of Human PAI-1 Activity (%)) [%] | Inhibition Rate of Human PAI-1 Activity (%) (recombinant human PAI-1 [1]; compound 5 μM) | Inhibition Rate of Human PAI-1 Activity (%) (recombinant human PAI-1 [1]; compound 10 μM) | Inhibition Rate of Human PAI-1 Activity (%) (recombinant human PAI-1 [1]; compound 25 μM) | Structure (SMILES) | pIC50 (recombinant rat PAI-1) | inhibition at 0.1 µM (recombinant human PAI-1 [2]) [%] | pIC50 (recombinant human PAI-1 [3]) | inhibition at 10 µM (recombinant rat PAI-1) [%] | inhibition at 0.3 µM (recombinant human PAI-1 [2]) [%] | inhibition at 3 µM (recombinant human PAI-1 [3]) [%]
6 | 12 |  |  |  | O=C(O)C(=O)N(Cc1ccccc1)c1ccc(-c2ccc(OC(F)(F)F)cc2)cc1 [compound 6, N-benzyl-N-[4′-(trifluoromethoxy)biphenyl-4-yl]oxamic Acid] |  |  |  |  |  | 
 |  |  |  |  | CC(C)(C)c1ccc(CN(C(=O)C(=O)O)c2ccc(-c3ccc(OC(F)(F)F)cc3)cc2)cc1 [compound 8, N-[4-(tert-butyl)benzyl]-N-[4′-(trifluoromethoxy)biphenyl-4-yl]oxamic Acid] | 5.50 | 0 | 5.79 |  |  | 
 |  |  |  |  | CC(C)(C)c1ccc(CN(C(=O)C(=O)O)c2cccc(-c3ccc(OC(F)(F)F)cc3)c2)cc1 [compound 9, N-[4-(tert-butyl)benzyl]-N-[4′-(trifluoromethoxy)biphenyl-3-yl]oxamic Acid] | 5.56 | 0 | 5.77 | > 99 |  | 
 |  |  |  |  | CC(C)(C)c1ccc(CN(C(=O)C(=O)O)c2cc(-c3ccc(OC(F)(F)F)cc3)cc(C(F)(F)F)c2)cc1 [compound 18, N-[4-(tert-butyl)benzyl]-N-[4′-(trifluoromethoxy)-5-(trifluoromethyl)biphenyl-3-yl]oxamic Acid] | 5.79 | 0 | 5.90 |  |  | 
 |  | 7 | 35 | 74 | CC(C)(C)c1ccc(CN(C(=O)C(=O)O)c2ccc(-c3ccc(C(F)(F)F)cc3)cc2)cc1 [compound 24, N-[4-(tert-butyl)benzyl]-N-[4′-(trifluoromethyl)phenyl-4-yl]oxamic Acid] |  |  |  |  |  | 
 |  |  |  |  | CC(C)(C)c1ccc(CN(C(=O)C(=O)O)c2ccc(Oc3ccc(OC(F)(F)F)cc3)cc2C(F)(F)F)cc1 [compound 54, N-[4-(tert-butyl)benzyl]-N-{4-[4-(trifluoromethoxy)phenoxy]-2-(trifluoromethyl)phenyl}oxamic Acid] | 5.69 | 0 | 5.88 |  | 0 | 
 |  |  |  |  | Cc1ccc(N(Cc2ccc(C(C)(C)C)cc2)C(=O)C(=O)O)cc1-c1ccc(OC(F)(F)F)cc1 [compound 56, N-[4-(tert-butyl)benzyl]-N-[2-methyl-4′-(trifluoromethoxy)biphenyl-5-yl]oxamic Acid] | 5.73 | 4 | 5.85 | > 99 |  | 
 |  |  |  |  | CCCOc1ccc(N(Cc2ccc(C(C)(C)C)cc2)C(=O)C(=O)O)cc1-c1ccc(OC(F)(F)F)cc1 [compound 65, N-[4-(tert-butyl)benzyl]-N-[2-propoxy-4′-(trifluoromethoxy)biphenyl-5-yl]oxamic Acid] | 5.76 | 0 | 5.94 |  |  | > 99
 |  |  |  |  | CC(C)(C)c1ccc(CN(C(=O)C(=O)O)c2ccc(Cl)c(-c3ccc(OC(F)(F)F)cc3)c2)cc1 [compound 66, N-[4-(tert-butyl)benzyl]-N-[2-chloro-4′-(trifluoromethoxy)biphenyl-5-yl]oxamic Acid] | 5.81 | 6 | 5.94 |  |  | > 99
 |  |  |  |  | CCCCOc1ccc(-c2ccc(OC(F)(F)F)cc2)cc1N(Cc1ccc(C(C)(C)C)cc1)C(=O)C(=O)O [compound 69, N-[4-(tert-butyl)benzyl]-N-[4-butoxy-4′-(trifluoromethoxy)biphenyl-3-yl]oxamic Acid] | 5.89 | 0 | 6.06 | > 99 |  | 
 |  |  |  |  | COc1cc(OC)c(N(Cc2ccc(C(C)(C)C)cc2)C(=O)C(=O)O)cc1-c1ccc(OC(F)(F)F)cc1 [compound 70, N-[4-(tert-butyl)benzyl]-N-[2,4-dimethoxy-4′-(trifluoromethoxy)biphenyl-5-yl]oxamic Acid] | 5.64 | 0 | 5.88 | > 99 | 0 | 
 |  |  |  |  | CCCCCOc1ccc(-c2ccc(OC(F)(F)F)cc2)cc1N(Cc1ccc(C(C)(C)C)cc1)C(=O)C(=O)O [compound 74, N-[4-(tert-butyl)benzyl]-N-[4-pentyloxy-4′-(trifluoromethoxy)biphenyl-3-yl]oxamic acid] | 5.94 | 0 | 6.09 | > 99 |  | 
 |  |  |  |  | CCC(CC)Oc1ccc(N(Cc2ccc(C(C)(C)C)cc2)C(=O)C(=O)O)cc1-c1ccc(OC(F)(F)F)cc1 [compound 77, N-[4-(tert-butyl)benzyl]-N-[2-(1-ethylpropoxy)-4′-(trifluoromethoxy)biphenyl-5-yl]oxamic Acid] | 5.85 | 12 | 5.98 |  |  | > 99
 |  |  |  |  | CCCOc1ccc(N(Cc2ccc(C(C)(C)C)cc2)C(=O)C(=O)O)c(-c2ccc(OC(F)(F)F)cc2)c1 [compound 78, N-[4-(tert-butyl)benzyl]-N-[5-propoxy-4′-(trifluoromethoxy)biphenyl-2-yl]oxamic Acid] | 5.74 | 0 | 5.97 |  |  | > 99
 |  |  |  |  | CCC(CC)Oc1ccc(-c2ccc(OC(F)(F)F)cc2)cc1N(Cc1ccc(C(C)(C)C)cc1)C(=O)C(=O)O [compound 79, N-[4-(tert-butyl)benzyl]-N-[4-(1-ethylpropoxy)-4′-(trifluoromethoxy)biphenyl-3-yl]oxamic Acid] | 5.93 | 8 | 6.13 | > 99 |  | > 99
 |  |  |  |  | CCCCc1ccc(CN(C(=O)C(=O)O)c2ccc(-c3ccc(C(C)(C)C)cc3)cc2)cc1 [compound 86, N-(4-butylbenzyl)-N-[4′-(tert-butyl)biphenyl-4-yl]oxamic Acid] | 5.86 | 0 | 6.14 |  | 0 | > 99
 |  |  |  |  | CCN(CC)c1ccc(N(Cc2ccc(C(C)(C)C)cc2)C(=O)C(=O)O)c(-c2ccc(OC(F)(F)F)cc2)c1 [compound 88, N-[4-(tert-butyl)benzyl]-N-[5-diethylamino-4′-(trifluoromethoxy)biphenyl-2-yl]oxamic Acid] | 5.72 | 0 | 5.95 |  | 0 | 
